Structures can show the parent of a compound that is named as a salt.

The assay addresses T1, Calcium sensing receptor (hCaSR) (Homo sapiens, UniProt P41180).
T1 construct: expressed in transfected cells; host or cells: HEK293 (stably transfected)
T1 sequence (P41180 20-1078): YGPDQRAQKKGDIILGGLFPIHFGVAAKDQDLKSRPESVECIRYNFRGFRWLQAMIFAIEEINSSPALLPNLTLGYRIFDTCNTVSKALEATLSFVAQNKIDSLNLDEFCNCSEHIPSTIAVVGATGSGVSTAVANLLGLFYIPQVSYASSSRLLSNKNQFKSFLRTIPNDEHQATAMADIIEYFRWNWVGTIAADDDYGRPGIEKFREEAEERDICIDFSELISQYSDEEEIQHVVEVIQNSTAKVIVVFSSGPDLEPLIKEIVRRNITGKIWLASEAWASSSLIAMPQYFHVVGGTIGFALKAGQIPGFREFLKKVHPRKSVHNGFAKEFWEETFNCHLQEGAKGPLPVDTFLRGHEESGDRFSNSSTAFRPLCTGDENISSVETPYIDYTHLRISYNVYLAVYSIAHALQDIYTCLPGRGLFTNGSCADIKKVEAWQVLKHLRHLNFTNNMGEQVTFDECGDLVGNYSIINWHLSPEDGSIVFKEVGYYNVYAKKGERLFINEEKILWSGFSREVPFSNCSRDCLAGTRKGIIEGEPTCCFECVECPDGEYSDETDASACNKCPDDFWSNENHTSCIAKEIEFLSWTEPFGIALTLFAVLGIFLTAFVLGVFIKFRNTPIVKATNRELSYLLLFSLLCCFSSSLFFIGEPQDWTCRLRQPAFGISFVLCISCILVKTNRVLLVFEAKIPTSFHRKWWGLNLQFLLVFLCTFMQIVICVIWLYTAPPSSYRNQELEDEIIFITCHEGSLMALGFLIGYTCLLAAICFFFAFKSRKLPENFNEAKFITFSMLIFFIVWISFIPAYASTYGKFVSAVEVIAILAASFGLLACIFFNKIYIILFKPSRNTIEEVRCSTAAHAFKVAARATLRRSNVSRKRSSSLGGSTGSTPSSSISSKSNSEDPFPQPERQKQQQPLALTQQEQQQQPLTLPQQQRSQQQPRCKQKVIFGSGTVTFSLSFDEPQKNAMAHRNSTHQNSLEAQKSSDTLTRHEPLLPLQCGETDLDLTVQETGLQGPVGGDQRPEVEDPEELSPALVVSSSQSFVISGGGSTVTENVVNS
As to the kind of experiment: In-vitro assay of calcimimetics through modulation of calcium sensing receptor (intracellular calcium increase, FLIPR). The assay is classed as cell-based. The settings on record: stably transfected HEK293 cells expressing hCaSR; Fluo4NW dye; 0.3 mM CaCl2; 8-point assay; read-out: EC50 in range. On the procedure: In-Vitro Assay Method of Calcimimetics Through Modulation of Calcium Sensing Receptor (CaSR): The ability of the compounds to modulate Calcium sensing receptor is determined by measuring an increase in intracellular calcium [Ca^2+]i. Stably transfected HEK293 cells expressing hCaSR_pTriEx-3 hygro vector are developed. Cells are grown overnight on a 96-well plate to 80% confluency in Ham's F12 containing 20% FBS at 37° C., 5% CO2. Subsequently, cells are washed extensively with 20 mM HEPES buffer containing 126 mM […], 1 mM MgCl2 and 4 mM KCl to remove serum components that might interfere with the assay. Cells are loaded with calcium sensing Fluo4NW dye in HEPES base buffer containing 0.1% BSA and 1 mg/ml glucose for 30 minutes to measure changes in intracellular calcium. The activities of the compounds are measured in FLIPR using 0.3 mM CaCl2 in 20 mM HEPES base buffer. The effectiveness of the compound to modulate receptor activity is determined by calculating the EC50 responses for that compound in an 8-point assay and plotted using GraphPad Prism 5.
For orientation: Calcium flux is commonly read through the fluorescence of an indicator in the cells.
Usually EC50 stands for the concentration at which the effect is half-maximal. On to `CC(N[C@H](C)c1cccc2ccccc12)c1cc(-c2ccc(C(F)(F)F)cc2)c2ccccc2c1` (single isomer, unassigned) [Example 9a, hydrochloride], for which the EC50 was 20 to 50 nM. The value for `COc1cccc([C@@H](C)NC(C)c2cc(-c3ccc(C(C)(C)C(=O)O)cc3)c3ccccc3c2)c1` (stereo partly drawn) [Example 138, 2-(4-(3-(1-(((R)-1-(3-Methoxyphenyl)ethyl)amino)ethyl)naphthalen-1-yl)phenyl)-2-methylpropanoic acid hydrochloride] was 50 to 400 nM; that for `CCOc1cccc([C@@H](C)NC(C)c2cc(-c3cc(F)cc(CCC(=O)O)c3)c3ccccc3c2)c1` (stereo partly drawn) [Example 158, 3-(3-(3-(1-(((R)-1-(3-Ethoxyphenyl)ethyl)amino)ethyl)naphthalen-1-yl)-5-fluorophenyl) propanoic acid hydrochloride] was less than 20 nM. For the molecule `COc1cccc([C@@H](C)NC(C)c2cc(-c3ccc(C(F)(F)C(=O)O)cc3)c3ccccc3c2)c1` (stereo partly drawn) [Example 135, 2,2-Difluoro-2-(4-(3-(1-(((R)-1-(3-methoxyphenyl)ethyl)amino)ethyl)naphthalen-1-yl)phenyl) acetic acid hydrochloride], the EC50 was less than 20 nM. Take `COc1cccc([C@@H](C)NC(C)c2cc(-c3ccc(C)c(C(=O)O)c3)c3ccccc3c2)c1` (single isomer, unassigned) [Example 114b, hydrochloride]: the EC50 was in the range of 20 to 50 nM. With `COC(=O)c1cc(-c2cc(CN[C@H](C)c3cccc(OC)c3)cc3ccccc23)ccc1F` [Example 45, (R)-methyl 2-fluoro-5-(3-(((1-(3-methoxyphenyl)ethyl)amino)methyl)naphthalen-1-yl)benzoate hydrochloride], the EC50 was less than 20 nM.

As to `COc1cccc([C@@H](C)NC(C)c2cc(-c3cccc(C(C)(C)C(=O)O)c3)c3ccccc3c2)c1` (stereo partly drawn) [Example 139, 2-(3-(3-(1-(((R)-1-(3-Methoxyphenyl)ethyl)amino)ethyl)naphthalen-1-yl)phenyl)-2-methylpropanoic acid hydrochloride], the EC50 was 50 to 400 nM. Regarding `COc1cc(F)cc(C(C)NC(C)c2cc(-c3ccc(C(F)(F)F)cc3)c3ccccc3c2)c1` (single isomer, unassigned) [Example 163b, 1-(3-Fluoro-5-methoxyphenyl)-N-(1-(4-(4-(trifluoromethyl)phenyl)naphthalen-2-yl)ethyl)ethanamine hydrochloride], the EC50 lay in the range of 20 to 50 nM. In the case of `CC(N[C@H](C)c1cccc(F)c1)c1cc(-c2ccc(C(F)(F)F)cc2)c2ccccc2c1` (stereo partly drawn) [Example 13, (1R)-1-(3-Fluorophenyl)-N-(1-(4-(4-(trifluoromethyl)phenyl)naphthalen-2-yl)ethyl)ethanamine hydrochloride], the EC50 was less than 20 nM. On to `CCC(N[C@H](C)c1cccc(OC)c1)c1cc(-c2ccc(C)c(C(=O)O)c2)c2ccccc2c1` (stereo partly drawn) [Example 149, 5-(3-(1-(((R)-1-(3-Methoxyphenyl)ethyl)amino)propyl)naphthalen-1-yl)-2-methylbenzoic acid hydrochloride], for which the EC50 lay in the range of 50 to 400 nM.

With `CC(N[C@H](C)c1cccc(Cl)c1)c1cc(-c2cccc(C(F)(F)F)c2)c2ccccc2c1` (stereo partly drawn) [Example 14, (1R)-1-(3-Chlorophenyl)-N-(1-(4-(3-(trifluoromethyl)phenyl)naphthalen-2-yl)ethyl)ethanamine hydrochloride], the EC50 is less than 20 nM. Consider `COc1cccc([C@@H](C)NC(C)c2cc(-c3ccc(F)cc3)c3ccccc3c2)c1` (mixture of isomers) [Example 15, 1-(4-(4-Fluorophenyl)naphthalen-2-yl)-N-((R)-1-(3-methoxyphenyl)ethyl)ethanamine hydrochloride], for which the 50% effective concentration (EC50) is less than 20 nM. Take `COc1cccc([C@@H](C)NC(C)c2cc(-c3cc(F)cc(N4CCOCC4)c3)c3ccccc3c2)c1` (stereo partly drawn) [Example 161, 1-(4-(3-Fluoro-5-morpholinophenyl)naphthalen-2-yl)-N-((R)-1-(3-methoxyphenyl)ethyl)ethanamine hydrochloride]: the EC50 was less than 20 nM. As to `COc1cccc([C@@H](C)NC(C)c2cc(-c3ccc(OC)c(F)c3)c3ccccc3c2)c1` (stereo partly drawn) [Example 7, 1-(4-(3-Fluoro-4-methoxyphenyl)naphthalen-2-yl)-N-((R)-1-(3-methoxyphenyl)ethyl)ethanamine hydrochloride], the EC50 was less than 20 nM. Consider `COc1ccc(-c2cc(C(C)N[C@H](C)c3cccc(Cl)c3)cc3ccccc23)cc1F` (stereo partly drawn) [Example 8, (1R)-1-(3-Chlorophenyl)-N-(1-(4-(3-fluoro-4-methoxyphenyl)naphthalen-2-yl)ethyl)ethanamine hydrochloride], for which the EC50 was less than 20 nM. For `COc1cccc([C@@H](C)NCc2cc(-c3cccc(C(=O)O)c3C)c3ccccc3c2)c1` [Example 101, (R)-3-(3-(((1-(3-Methoxyphenyl)ethyl)amino)methyl)naphthalen-1-yl)-2-methylbenzoic acid hydrochloride] the value was 50 to 400 nM; for `COc1cc([C@@H](C)NCc2cc(-c3ccc(C)c(C(=O)O)c3)c3ccccc3c2)ccc1F` [Example 93, (R)-5-(3-(((1-(4-Fluoro-3-methoxyphenyl)ethyl)amino)methyl)naphthalen-1-yl)-2-methylbenzoic acid hydrochloride], 50 to 400 nM.

Turning to `CCOc1cccc([C@@H](C)NC(C)c2cc(-c3ccc(F)c(C(=O)O)c3)c3ccccc3c2)c1` (stereo partly drawn) [Example 126, 5-(3-(1-(((R)-1-(3-Ethoxyphenyl)ethyl)amino)ethyl)naphthalen-1-yl)-2-fluorobenzoic acid hydrochloride], the EC50 was less than 20 nM.

Turning to `COc1cccc([C@@H](C)NCc2cc(-c3ccc(OC)c(C(=O)O)c3)c3ccccc3c2)c1` [Example 104, (R)-2-Methoxy-5-(3-(((1-(3-methoxyphenyl)ethyl)amino)methyl)naphthalen-1-yl)benzoic acid hydrochloride], the EC50 was 50 to 400 nM. As for `CCOc1cccc([C@@H](C)NC(C)c2cc(-c3ccc(C)c(CCC(=O)O)c3)c3ccccc3c2)c1` (stereo partly drawn) [Example 157, 3-(5-(3-(1-(((R)-1-(3-Ethoxyphenyl)ethyl)amino)ethyl)naphthalen-1-yl)-2-methylphenyl) propanoic acid hydrochloride], the EC50 was less than 20 nM.

Consider `COc1cccc([C@@H](C)NC(C)c2cc(-c3ccc(C(=O)O)c(F)c3)c3ccccc3c2)c1` (stereo partly drawn) [Example 132, 2-Fluoro-4-(3-(1-(((R)-1-(3-methoxyphenyl)ethyl)amino)ethyl)naphthalen-1-yl)benzoic acid hydrochloride], for which the EC50 lay within 50 to 400 nM. On to `COc1cccc([C@@H](C)NC(C)c2cc(-c3ccc(F)c(CCC(=O)O)c3)c3ccccc3c2)c1` (stereo partly drawn) [Example 122, 3-(2-Fluoro-5-(3-(1-(((R)-1-(3-methoxyphenyl)ethyl)amino)ethyl)naphthalen-1-yl)phenyl)propanoic acid hydrochloride], for which the EC50 was less than 20 nM. For `Cc1ccc(-c2cc(CN[C@H](C)c3cccc(Cl)c3)cc3ccccc23)cc1C(=O)O` [Example 94, (R)-5-(3-(((1-(3-Chlorophenyl)ethyl)amino)methyl)naphthalen-1-yl)-2-methylbenzoic acid hydrochloride], the EC50 is 50 to 400 nM.

Regarding `COc1cccc([C@@H](C)NC(C)c2cc(-c3ccc(C(F)(F)F)cc3)c3ccc(F)cc3c2)c1` (stereo partly drawn) [Example 162, (1R)-1-(3-methoxyphenyl)-N-(1-(7-fluoro-4-(4-(trifluoromethyl)phenyl)naphthalen-2-yl)ethyl)ethanamine hydrochloride], the EC50 was less than 20 nM.

On to `COc1cc(C(=O)O)cc(-c2cc(C(C)N[C@H](C)c3cccc(OC)c3)cc3ccccc23)c1` (stereo partly drawn) [Example 150, 3-Methoxy-5-(3-(1-(((R)-1-(3-methoxyphenyl)ethyl)amino)ethyl)naphthalen-1-yl)benzoic acid hydrochloride], for which the EC50 lay within 50 to 400 nM.

For the origin of these results see patent publication US9493396B2, “Substituted naphthalene compounds as calcium sensing receptor modulators” (LUPIN ATLANTIS HOLDINGS SA, priority 2013, dated 2016).
